{"source": "patent US10993984B2", "about": "“Terlipressin compositions and their methods of use” (Chiasma, Inc., priority 2016, dated 2021)", "assay": "in vivo", "conditions": "dog, iv, 0.2 mg", "note": "Bridge positions count the residues as written; N and C are the ends. Peptide text beside a SMILES is read from it.", "protocol": "The IV dosage was 0.2 mg per dog which is similar to the therapeutic dosage in humans. The oral dosage was 20 mg, and was selected by assuming a BA of about 1%. The concentration of both terlipressin and the active metabolite lysine vasopressin are shown as a function of time. The pharmacokinetic parameters of the active metabolite lysine-vasopressin were determined as well as terlipressin. Each Glypressin ampule contains 1 mg terlipressin acetate, which is equivalent to 0.85 mg terlipressin base. All doses in this study are expressed on the basis of terlipressin base.\nAll animals were fasted for at least 12 hours prior to dosing and through the first 4 hours of blood sample collection.\nIn the oral terlipressin capsule treatments, in order to acidify the stomach of the dog, approximately 30 minutes prior to dosing each animal received a single subcutaneous (SC) injection of pentagastrin (0.12 mg/mL) at a dose level of 0.006 mg/kg and a dose volume of 0.05 mL/kg. The same dogs can be used for more than one treatment, with a wash-out period of at least 1 week.\nBlood was withdrawn at pre-determined times as follows:", "data": [{"smiles": "NCCCC[C@H](NC(=O)[C@@H]1CCCN1C(=O)[C@@H]1CSSC[C@H](NC(=O)CNC(=O)CNC(=O)CN)C(=O)N[C@@H](Cc2ccc(O)cc2)C(=O)N[C@@H](Cc2ccccc2)C(=O)N[C@@H](CCC(N)=O)C(=O)N[C@@H](CC(N)=O)C(=O)N1)C(=O)NCC(N)=O", "note": "[IV terlipressin, Terlipressin] (H-GGGCYFQNCPKG-NH2; disulfide 4-9)", "values": [{"measurement": "AUC(0-inf)", "result": 9.14, "unit": "ng·h/mL"}, {"measurement": "AUC(0-t)", "result": 9.13, "unit": "ng·h/mL"}, {"measurement": "Cmax", "result": 59.1, "unit": "ng/mL"}, {"measurement": "half-life", "result": "13.9 ± 1.32", "unit": "min"}]}]}
